Measured values as given in the NIST ThermoML archive (doi:10.1016/j.fluid.2017.03.008).

What was measured:
[1] = refractive index (Na D-line) (dimensionless); xn = mol fraction of the nth substance listed; settings: 101.3 kPa, Liquid, Standard Abbe refractometry
[2] = xn = mol fraction of the nth substance listed; settings: for surface tension liquid-gas: Ring tensiometer; for viscosity / mass density: 101.3 kPa, Liquid; for viscosity: Capillary tube (Ostwald / Ubbelohde) method; for mass density: Vibrating tube method

CCCC[N+](CCCC)(CCCC)CCCC.[Br-] [tetrabutylammonium bromide] + NCCO
Settings | mass density, [2] [kg/m3] | refractive index, [1] | surface tension liquid-gas, [2] [mN/m] | viscosity, [2] [mPa·s]
298.15 K, x1 = 0.14 | 1048.1 | 1.48383 | 36.1 | 22
298.15 K, x1 = 0.16 | 1056.6 | 1.4877 | 36 | 52.9
298.15 K, x1 = 0.2 | 1060.9 | 1.4881 | 35.8 | 80.2
298.15 K, x1 = 0.25 | 1061.6 | 1.49229 | 35.7 | 106.8
308.15 K, x1 = 0.14 | 1038.7 | 1.48033 | 35.7 | 15.5
308.15 K, x1 = 0.16 | 1048 | 1.48423 | 35.6 | 31
308.15 K, x1 = 0.2 | 1053.6 | 1.48464 | 35.4 | 54.7
308.15 K, x1 = 0.25 | 1054.5 | 1.48876 | 35.3 | 77
318.15 K, x1 = 0.14 | 1028.9 | 1.47704 | 35.4 | 12
318.15 K, x1 = 0.16 | 1041.5 | 1.48115 | 35.2 | 21.1
318.15 K, x1 = 0.2 | 1046.4 | 1.48169 | 35 | 38.2
318.15 K, x1 = 0.25 | 1047.3 | 1.48547 | 34.8 | 53.57
328.15 K, x1 = 0.14 | 1018.5 | 1.47349 | 35.1 | 9
328.15 K, x1 = 0.16 | 1034.1 | 1.47778 | 34.9 | 14.4
328.15 K, x1 = 0.2 | 1039.2 | 1.47851 | 34.6 | 20.1
328.15 K, x1 = 0.25 | 1040.2 | 1.48242 | 34.5 | 35.29
338.15 K, x1 = 0.14 | 1010.2 | 1.46989 | 34.7 | 6.8
338.15 K, x1 = 0.16 | 1026.7 | 1.47385 | 34.6 | 9
338.15 K, x1 = 0.2 | 1032 | 1.47541 | 34.3 | 13.4
338.15 K, x1 = 0.25 | 1033.1 | 1.47966 | 34 | 18.6
348.15 K, x1 = 0.14 | 1001.1 | 1.46595 | 34.4 | 5.7
348.15 K, x1 = 0.16 | 1019.3 | 1.46989 | 34.2 | 7.5
348.15 K, x1 = 0.2 | 1024.7 | 1.47164 | 33.9 | 10.5
348.15 K, x1 = 0.25 | 1026.1 | 1.47651 | 33.6 | 13.8
358.15 K, x1 = 0.14 | 992.1 | 1.46234 | 34.1 | 5.2
358.15 K, x1 = 0.16 | 1012 | 1.46632 | 33.9 | 5.2
358.15 K, x1 = 0.2 | 1017.4 | 1.46897 | 33.5 | 8
358.15 K, x1 = 0.25 | 1019 | 1.47303 | 33.2 | 10.2

C[P+](c1ccccc1)(c1ccccc1)c1ccccc1.[Br-] [methyltriphenylphosphonium bromide] + NCCO
Settings | mass density, [2] [kg/m3] | refractive index, [1] | surface tension liquid-gas, [2] [mN/m] | viscosity, [2] [mPa·s]
298.15 K, x1 = 0.11 | 1092.9 | 1.50265 | 50.3 | 27.7
298.15 K, x1 = 0.13 | 1099.8 | 1.50587 | 50.2 | 28
298.15 K, x1 = 0.14 | 1107.4 | 1.51187 | 49.3 | 35.5
298.15 K, x1 = 0.16 | 1195.8 | 1.56644 | 48.9 | 128.9
308.15 K, x1 = 0.11 | 1085 | 1.49911 | 49.5 | 20
308.15 K, x1 = 0.13 | 1091.9 | 1.50221 | 49.3 | 20
308.15 K, x1 = 0.14 | 1100 | 1.50794 | 48.4 | 20.7
308.15 K, x1 = 0.16 | 1187.9 | 1.56247 | 48 | 84.9
318.15 K, x1 = 0.11 | 1077.1 | 1.49546 | 48.6 | 13.6
318.15 K, x1 = 0.13 | 1083.8 | 1.49935 | 48.2 | 13.1
318.15 K, x1 = 0.14 | 1092.2 | 1.50501 | 47.6 | 13.6
318.15 K, x1 = 0.16 | 1180.1 | 1.55846 | 47.2 | 37.9
328.15 K, x1 = 0.11 | 1068.9 | 1.49224 | 47.8 | 9.5
328.15 K, x1 = 0.13 | 1075.8 | 1.49519 | 47.2 | 9.1
328.15 K, x1 = 0.14 | 1084.2 | 1.50071 | 46.7 | 10
328.15 K, x1 = 0.16 | 1172.3 | 1.55518 | 46.4 | 25.4
338.15 K, x1 = 0.11 | 1060.8 | 1.48802 | 46.9 | 7
338.15 K, x1 = 0.13 | 1067.6 | 1.49063 | 46.3 | 6.9
338.15 K, x1 = 0.14 | 1076.1 | 1.49733 | 45.9 | 7.5
338.15 K, x1 = 0.16 | 1164.5 | 1.55159 | 45.6 | 15.6
348.15 K, x1 = 0.11 | 1052.7 | 1.48405 | 46.2 | 5.4
348.15 K, x1 = 0.13 | 1059.4 | 1.48631 | 45.3 | 5.4
348.15 K, x1 = 0.14 | 1068 | 1.49343 | 44.9 | 5.6
348.15 K, x1 = 0.16 | 1156.6 | 1.54699 | 44.8 | 10.7
358.15 K, x1 = 0.11 | 1044.7 | 1.47988 | 45.3 | 4.7
358.15 K, x1 = 0.13 | 1051.1 | 1.48215 | 44.4 | 4.8
358.15 K, x1 = 0.14 | 1059.8 | 1.49027 | 44.2 | 4.9
358.15 K, x1 = 0.16 | 1148.8 | 1.54286 | 44 | 9.1

C[N+](C)(C)CCO.[Cl-] [choline chloride] + NCCO
Settings | mass density, [2] [kg/m3] | refractive index, [1] | surface tension liquid-gas, [2] [mN/m] | viscosity, [2] [mPa·s]
298.15 K, x1 = 0.11 | 1062.8 | 1.47733 | 49.6 | 32.7
298.15 K, x1 = 0.13 | 1065 | 1.47875 | 49.2 | 37.7
298.15 K, x1 = 0.14 | 1069 | 1.48117 | 48.7 | 36.7
298.15 K, x1 = 0.16 | 1076.7 | 1.48388 | 48.2 | 48.5
308.15 K, x1 = 0.11 | 1055.2 | 1.47404 | 48.8 | 22.6
308.15 K, x1 = 0.13 | 1057.6 | 1.47541 | 48.5 | 25.5
308.15 K, x1 = 0.14 | 1061.7 | 1.47797 | 48 | 25
308.15 K, x1 = 0.16 | 1069.6 | 1.47998 | 47.6 | 28.8
318.15 K, x1 = 0.11 | 1047.8 | 1.47092 | 47.9 | 15
318.15 K, x1 = 0.13 | 1050.3 | 1.47217 | 47.8 | 13.8
318.15 K, x1 = 0.14 | 1054.4 | 1.47445 | 47.4 | 16.8
318.15 K, x1 = 0.16 | 1062.7 | 1.47623 | 46.9 | 20.1
328.15 K, x1 = 0.11 | 1040.4 | 1.46759 | 47.2 | 10.5
328.15 K, x1 = 0.13 | 1043 | 1.46908 | 47.1 | 10.1
328.15 K, x1 = 0.14 | 1047.2 | 1.47101 | 46.7 | 11.2
328.15 K, x1 = 0.16 | 1055.9 | 1.47257 | 46.2 | 13.5
338.15 K, x1 = 0.11 | 1033 | 1.46419 | 46.4 | 7.1
338.15 K, x1 = 0.13 | 1035.6 | 1.46539 | 46.4 | 7.9
338.15 K, x1 = 0.14 | 1039.9 | 1.46761 | 46 | 8.8
338.15 K, x1 = 0.16 | 1049 | 1.46842 | 45.6 | 9.8
348.15 K, x1 = 0.11 | 1025.6 | 1.46095 | 45.8 | 5.9
348.15 K, x1 = 0.13 | 1028.3 | 1.46171 | 45.8 | 6
348.15 K, x1 = 0.14 | 1032.6 | 1.46444 | 45.3 | 6.6
348.15 K, x1 = 0.16 | 1042 | 1.46421 | 45 | 7.5
358.15 K, x1 = 0.11 | 1018.1 | 1.45742 | 45 | 4.7
358.15 K, x1 = 0.13 | 1020.9 | 1.45833 | 44.9 | 5.2
358.15 K, x1 = 0.14 | 1025.3 | 1.46049 | 44.7 | 5.3
358.15 K, x1 = 0.16 | 1035 | 1.46031 | 44.4 | 5.9
